The numbers were not newly measured in patent US6506434B1, “Process for coating N-[N-(3,3-dimethylbutyl)-L-α-aspartyl]-L-phenylalanine 1-methyl ester onto a carrier” (The NutraSweet Company, priority 1999, dated 2003), which cites them from elsewhere.

The conditions of this series: relative to sugar; stated as known.

Take `COC(=O)[C@H](Cc1ccccc1)NC(=O)[C@H](CC(=O)O)NCCC(C)(C)C` [neotame, N-[N-(3,3-dimethylbutyl)-L-α-aspartyl]-phenylalanine 1-methyl ester]: the “sweetening potency (sweeter than sugar)” value is given as “about 8000 ×”.
